Laboratory results as given in patent US20090088482A1, “Compositions and Methods For Treating Heart Failure” (The Trustees Of Columbia University In The City New York, priority 2003, published 2009).

What was measured:
[1] = tested on: myocytes (TUNEL, 8-oxoG, MYH, OGG1 staining); assay: Quantitative immunohistochemistry staining of apoptosis, DNA damage and DNA repair markers (Example 5); assay type: in vivo, Sprague-Dawley rats; conditions: mean ± SD; for 8-oxoG: DNA damage product, HF 18 ± 4, Sham 0.5 ± 0.1; for OGG1: DNA repair marker, HF 0.5 ± 0.1, Sham 0.2 ± 0.1; for TUNEL: percentage of myocytes with nuclear staining, HF 21 ± 4, Sham 0.5 ± 0.1; for MYH (score): score 0 = 0%, 1 = 0-15%, 2 = 15-30%, 3 = 30-50%, 4 = >50% positive, HF 1.4 ± 0.5, Sham 0.6 ± 0.2
Protocol: A total of 69 rats were used in this study. LAD ligation surgery was performed in 60 rats, of which 37 (62%) survived three weeks post-surgery. Another 9 rats underwent a sham operation (group Sham), with 7 (78%) survivors. Three weeks post-operatively, echocardiography was performed to establish the baseline level of HF (as measured by fractional shortening). The LAD ligation rats were divided into 4 treatment groups matched for the degree of HF and were randomly assigned to one of the following therapies for 9 additional weeks: (1) rats receiving no therapy (group HF, n=9); (2) rats receiving high-dose clenbuterol at 1 mg/kg/day (group Clen, n=9); (3) rats receiving high-dose metoprolol at 200 mg/kg/day (group Meto, n=9); or (4) rats receiving concurrent high-dose clenbuterol at 1 mg/kg/day and high-dose metoprolol therapy at 200 mg/kg/day (group Clen+Meto, n=10).
A short-axis section of the heart at the point of maximal infarction was fixed in 4% paraformaldehyde solution for 12 hours. Sections were then embedded in paraffin and 5 μm slices used for trichrome staining. The infarct size was determined as a percentage of the LV circumference under light microscopy by a single individual (S.X.) blinded to group assignment. The remaining heart tissue was flash-frozen in liquid nitrogen and stored at −80° C. for Western blot analysis.
Histological sections (5 μm thick) were used to perform immunohistochemistry for: terminal deoxynucleotidyltransferase end labeling (TUNEL; apoptosis marker), 8-oxoG (DNA damage product), MYH (DNA mismatch repair enzyme), and OGG1 (DNA base excision repair enzyme). The percentage of myocytes with nuclear staining was quantified in a blinded manner. Because OGG1 is found both in the nucleus and cytoplasm, a scoring system was utilized to semi-quantitatively describe the staining observed: 0=no staining; 1=0 to 15% staining; 2=15 to 30% staining; 3=30 to 50% staining; and 4=>50% staining of the nucleus and cytoplasm.

[2] = tested on: sarcoplasmic reticulum calcium-ATPase (SERCA2a); assay: Western blot of calcium-handling protein expression: SERCA2a (Example 5); assay type: in vivo, Sprague-Dawley rats; conditions: FIG. 6; not different from Sham
Protocol: (§1) Five rat hearts from each group (HF, Clen, Meto, Clen+Meto, and Sham) were randomly selected and used for analysis of calcium-handling protein expression levels. Lysates of LV tissue were obtained with the use of a homogenizer (Brinkmann Instruments, Westbury, N.Y.). Approximately 150 mg of heart tissue was placed in a seven-fold volume of lysis buffer (20 mM/L Na-HEPES, 4 mM/L EGTA, 1 mM/L DTT, pH 7.4) in the presence of proteinase inhibitors (0.1 mM/L leupeptin and 0.3 mM/L PMSF). The protein concentration was determined using a protein assay kit (Bio-Rad Laboratories, Hercules, Calif.). Samples (50 μg) were denatured at 95° C. and size-fractionated using SDS-polyacrylamide gel electrophoresis (PAGE) under reducing conditions. SDS-PAGE was performed using 7.5% separating and 5% stacking gels for SERCA2a and 5% separating and 4% stacking gels for RyR. Electrophoresis was performed in a Miniprotean II cell (Bio-Rad Laboratories, Hercules, Calif.) followed by transfer of proteins (using 34 V overnight at 4° C.) onto nitrocellulose in a mini trans-blot transfer cell (Bio-Rad Laboratories, Hercules, Calif.) filled with transfer buffer (25 m/L Tris-HCl, pH 8.3, 192 mM/L glycine and 20% methanol). […]
(§2) Optical densities of protein level signals were quantified with the use of a laser scanning densitometer (Molecular Dynamics, Palo Alto, Calif.) in a blinded manner. […]

[3] = tested on: rats with chronic heart failure induced by coronary artery ligation; assay: Ex vivo left ventricular pressure-volume relationship (LVPVR) tracings (Example 2); assay type: in vivo; conditions: 2 mg/kg/day oral, 8 weeks, untreated CHF 1.11
Protocol: (§3) Chronic heart failure was induced by coronary artery ligation in rats, and was confirmed by echocardiography, three weeks post-surgery. Three groups of rats were studied: (1) Chronic heart failure without clenbuterol (n=7); (2) chronic heart failure+clenbuterol (2 mg/kg/day; n=5); and (3) rats after sham operation (n=11). After 8 weeks of oral clenbuterol therapy, echocardiography and direct hemodynamic monitoring were performed. Rat hearts were then harvested for ex vivo left ventricular pressure-volume relationship (LVPVR) tracings, histologic (trichrome) sections, and molecular assays. Western analysis for myocardial calcium-handling proteins (ryanodine receptors (RyR), SERCA2a, phospholamban, and calcium-sodium exchanger) was assessed by densitometry.

[4] = ten of 15 LVAD patients; with ACE inhibition, β-1 selective blockade, spironolactone; cited from earlier work
SERCA2a = assay: Western analysis of myocardial calcium-handling proteins by densitometry: SERCA2a (Example 2); assay type: in vivo, rats; conditions: 2 mg/kg/day oral, 8 weeks, untreated CHF 1.7±0.5, Sham 2.2±0.4
Protocol: as §3

[5] = tested on: rats with chronic heart failure induced by coronary artery ligation; assay: Echocardiography and direct hemodynamic monitoring in rats with chronic heart failure induced by coronary artery ligation (Example 2); assay type: in vivo; conditions: 2 mg/kg/day oral, 8 weeks
Protocol: as §3

ryanodine receptor (RyR) = assay: Western blot of calcium-handling protein expression: RyR (Example 5); assay type: in vivo, Sprague-Dawley rats; conditions: FIG. 6; not different from Sham
Protocol: as §1, §2

[6] = tested on: ryanodine receptors (RyR); assay: Western analysis of myocardial calcium-handling proteins by densitometry: RyR (Example 2); assay type: in vivo, rats; conditions: 2 mg/kg/day oral, 8 weeks, untreated CHF 1.6±0.4, Sham 2.8±0.8
Protocol: as §3

| Structure (SMILES) | 8-oxoG [1] | OGG1 [1] | TUNEL [1] | MYH (score) [1] | SERCA2a protein expression level relative to tubulin, versus HF group [2] | LVPVR volume for a given LV pressure=15 mmHg [3] [mL] | rate of myocardial recovery (LVAD explantation for recovery) [4] [%] | Protein level of SERCA2a (SERCA2a) | LVEDP ([5]; untreated CHF 27±5, Sham 12±3) [mmHg] | LV fractional area change ([5]; untreated CHF 35±3, Sham 53±2) [%] | LV pressure ([5]; untreated CHF 94±2.8, Sham 114±3.3) [mmHg] | LVdP/dt ([5]; untreated CHF 2,570±384, Sham 3,728±193) | RyR protein expression level relative to tubulin, versus HF group (ryanodine receptor (RyR)) | Protein level of RyR [6] |
| --- | --- | --- | --- | --- | --- | --- | --- | --- | --- | --- | --- | --- | --- | --- |
| COCCc1ccc(OCC(O)CNC(C)C)cc1 (stereo not drawn) [Meto, metoprolol] | 12 ± 3 † % | 6.4 ± 1.5 † % | 12 ± 4 † % | 2.6 ± 0.4 † score |  |  |  |  |  |  |  |  |  |  |
| CC(C)(C)NCC(O)c1cc(Cl)c(N)c(Cl)c1 (stereo not drawn) [Clen, clenbuterol] | 10 ± 2 † % | 8.2 ± 2.2 † % | 11 ± 3 † % | 2.8 ± 0.5 † score | significantly improved | 1.02 | 67 | 2.0±0.2 | 15±6 | 42±1 | 100±6 | 3,250±325 mmHg/s | significantly improved | 2.2±0.7 |
